In patent US20220370463A1, “STABILIZED C-FMS INTRACELLULAR FRAGMENTS (FICD) PROMOTE OSTEOCLAST DIFFERENTIATION AND ARTHRITIC BONE EROSION” (New York Society for the Relief of the Ruptured and …, priority 2019, published 2022) one finds L-FICD and osteoclast differentiation data, which are given here for one substance.

Experiment [1] concerns FICDs (c-FMS intracellular fragments). Nature of the experiment: FICD generation in M-CSF-cultured human CD14+ cells, immunoblot of whole lysates. It counts as cell-based. Particulars: MDL28170 treatment. Here is the method: FIGS. 8A-8I show c-FMS expression in synovial macrophages. (A) The levels of M-CSF in synovial fluids from patients with rheumatoid arthritis (RA, n=13) and osteoarthritis (OA, n=8) were measured. (B) Mass spectrometry analysis for proteins from ˜50 kDa bands (red box) identified c-FMS as one of top genes. An image of coomassie blue stained genes showing immunoprecipitated cells lysates with either anti-DDK-tag antibodies or IgG control. (C-G) Human CD14+ cells were cultured with M-CSF (20ng/ml). Immunoblot of c-FMS with different antibodies against C-terminal of c-FMS; (C) C-20, (D) D-8, and (E) #3152. Immunoblot of c-FMS with different antibodies against N-terminal of c-FMS; (F) #61701, (G) H-300. (H-I) Human CD14+ cells were cultured with M-CSF (20 ng/ml) for 8 hours to induce early signals, and then BB94 (10 uM) was added for 2 days. (H) Immunoblot with anti c-FMS and α-tubulin antibodies in whole lysates (n=3). (I) Soluble c-FMS was detected by ELISA (n=3). […] All data are shown as mean±SEM. *; p<0.05 significant by two-tailed, paired t-test (A and I). M: mature form, I: immature form, H: hgh mass, L: low mass.
FIGS. 10A-10F show calpain regulates FICD generation. (A and B) Human CD14+ cells were cultured with M-CSF (20 ng/ml) for 8 hours to induce early signals and then (A) MDL 28170(0, 1, 2, 5 uM) or (B) PD150606 (0, 2, 5 uM) was added for 2 days. […]
A general note: In western blotting, separated proteins are transferred to a membrane and probed.

The next experiment relates to human CD14+ cells. Nature of the experiment: Human osteoclastogenesis assay (TRAP-positive multinuclear cells). In kind it is cell-based. Particulars: M-CSF, RANKL and MDL28170 for 4 days. Here is the method:
FIGS. 10A-10F show calpain regulates FICD generation. (A and B) Human CD14+ cells were cultured with M-CSF (20 ng/ml) for 8 hours to induce early signals and then (A) MDL 28170(0, 1, 2, 5 uM) or (B) PD150606 (0, 2, 5 uM) was added for 2 days. Immunoblot with anti c-FMS and α-tubulin antibodies in whole lysates(n=3). (C) Immunoblot of nuclear lysates with c-FMS and Lamin B1 antibodies. Cells were cultured with M-CSF for 12 hours, and then M-CSF was removed. Cells were subsequently treated with or without CaCl2 (10 mM) for an additional 24 hours. (D) Osteoclastogenesis assay. Human CD14+ cells were cultured with M-CSF, RANKL and MDL28170 for 4 days. […] Black scale bar is 100 μm. (E) A table showing the calpain cleavage site in c-FMS predicted by GPS-CCD program. First two calpain cleavage sites in cytoplasmic domains of c-FMS were used for FICD constructs. (F) A schematic diagram of a FICD construct. Representative results from at least three independent experiments.
For human osteoclastogenesis assays, cells were added to 96 well plates in triplicate at a seeding density of 5×10^4 cells per well. Osteoclast precursors were incubated with 20 ng/ml of M-CSF and 40 ng/ml of human soluble RANKL up to 5 days in α-MEM supplemented with 10% FBS and 1% L-glutamine. […] Multinucleated (greater than 3 nuclei), TRAP-positive osteoclasts were counted in triplicate wells. […]

Regarding MDL28170, the L-FICD entry in experiment [1] was “decreased”. The osteoclast differentiation entry with human CD14+ cells was “decreased”.
